From PubChem BioAssay AID1963976 (Molecular Pharmacology Branch, DTP, NCI, 2024)

System: 435261-313-R-J1-PDC tumor spheroid viability
Assay: Anticancer human tumor 435261-313-R-J1-PDC patient-derived colon adenocarcinoma cell line growth inhibition [PI3K]
Settings: spheroids with HUVEC and MSC; for IC50: curve of first compound; for viability, T/C: stronger effect = lower value
In short: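 Multi-cell spheroids combine tumor cells with HUVEC and human MSCs, treated with targeted agents alone or with inavolisib, alpelisib, duvelisib or copanlisib. Concentrations fall in half-log steps from at or near clinical Cmax, or from 10 microM where Cmax is unknown; viability read-out.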
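Also: spheroids exposed to compounds for 7 days.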

Structure (SMILES): CCN1CCN(Cc2ccc(Nc3ncc(F)c(-c4cc(F)c5nc(C)n(C(C)C)c5c4)n3)nc2)CC1 + CC(Nc1ncnc2nc[nH]c12)c1cc2cccc(Cl)c2c(=O)n1-c1ccccc1
- IC50 (second compound 0.0316 µM): > 1 µM
- IC50 (second compound 0.1 µM): > 1 µM
- IC50 (second compound 0.316 µM): > 1 µM
- IC50 (second compound 1 µM): 0.222 µM
- IC50 (second compound 3.16 µM): 0.0208 µM
- IC50 (second compound 10 µM): < 0.00316 µM
- viability, T/C (second compound 0.0316 µM, first compound 0.00316 µM): 97.8%
- viability, T/C (second compound 0.0316 µM, first compound 0.01 µM): 81.8%
- viability, T/C (second compound 0.0316 µM, first compound 0.0316 µM): 63.5%
- viability, T/C (second compound 0.0316 µM, first compound 0.1 µM): 60.1%
- viability, T/C (second compound 0.0316 µM, first compound 0.316 µM): 54.7%
- viability, T/C (second compound 0.0316 µM, first compound 1 µM): 51.6%
- viability, T/C (second compound 0.1 µM, first compound 0.00316 µM): 73.2%
- viability, T/C (second compound 0.1 µM, first compound 0.01 µM): 82.4%
- viability, T/C (second compound 0.1 µM, first compound 0.0316 µM): 99.5%
- viability, T/C (second compound 0.1 µM, first compound 0.1 µM): 54.3%
- viability, T/C (second compound 0.1 µM, first compound 0.316 µM): 48.6%
- viability, T/C (second compound 0.1 µM, first compound 1 µM): 60.4%
- viability, T/C (second compound 0.316 µM, first compound 0.00316 µM): 99.1%
- viability, T/C (second compound 0.316 µM, first compound 0.01 µM): 110%
- viability, T/C (second compound 0.316 µM, first compound 0.0316 µM): 74.2%
- viability, T/C (second compound 0.316 µM, first compound 0.1 µM): 61.9%
- viability, T/C (second compound 0.316 µM, first compound 0.316 µM): 46.6%
- viability, T/C (second compound 0.316 µM, first compound 1 µM): 54.5%
- viability, T/C (second compound 1 µM, first compound 0.00316 µM): 96%
- viability, T/C (second compound 1 µM, first compound 0.01 µM): 85.3%
- viability, T/C (second compound 1 µM, first compound 0.0316 µM): 59.7%
- viability, T/C (second compound 1 µM, first compound 0.1 µM): 50.3%
- viability, T/C (second compound 1 µM, first compound 0.316 µM): 44.9%
- viability, T/C (second compound 1 µM, first compound 1 µM): 54.6%
- viability, T/C (second compound 3.16 µM, first compound 0.00316 µM): 92.2%
- viability, T/C (second compound 3.16 µM, first compound 0.01 µM): 62%
- viability, T/C (second compound 3.16 µM, first compound 0.0316 µM): 43.9%
- viability, T/C (second compound 3.16 µM, first compound 0.1 µM): 36.1%
- viability, T/C (second compound 3.16 µM, first compound 0.316 µM): 42.1%
- viability, T/C (second compound 3.16 µM, first compound 1 µM): 37.7%
- viability, T/C (second compound 10 µM, first compound 0.00316 µM): 43.8%
- viability, T/C (second compound 10 µM, first compound 0.01 µM): 42.4%
- viability, T/C (second compound 10 µM, first compound 0.0316 µM): 32.5%
- viability, T/C (second compound 10 µM, first compound 0.1 µM): 30.7%
- viability, T/C (second compound 10 µM, first compound 0.316 µM): 30.4%
- viability, T/C (second compound 10 µM, first compound 1 µM): 34.6%
